Article PMC4303311 (Biochemistry, 2014)

Molecular target: T1, bacteriorhodopsin (BR) (Halobacterium salinarum, UniProt P02945)
T1 sequence (P02945 14-262): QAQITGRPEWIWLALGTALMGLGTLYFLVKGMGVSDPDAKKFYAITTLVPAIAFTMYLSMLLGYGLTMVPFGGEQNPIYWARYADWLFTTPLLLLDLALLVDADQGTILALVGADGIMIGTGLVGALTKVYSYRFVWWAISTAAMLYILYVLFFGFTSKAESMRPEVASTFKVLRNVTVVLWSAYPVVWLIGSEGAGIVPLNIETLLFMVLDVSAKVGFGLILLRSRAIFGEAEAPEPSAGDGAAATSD
Experiment: low-temperature FTIR-difference spectroscopy
Format: binding
Conditions: covalent; protonated Schiff base; 80 K; native purple membrane

Question: `CC1=C(/C=C/C(C)=C/C=C/C(C)=C/C=O)C(C)(C)CCC1` [A1 retinal, all-trans-retinal] was tested. Which “low-temperature FTIR-difference spectroscopy” value did it give?
Answer: The value was “Negative bands appear at similar frequencies in the FTIR-difference spectrum of CaChR1 and BR”.
